# Assay results reported in patent US10308618B2, “Blue light cutting optical material comprising a benzotriazole UV absorber” (ESSILOR INTERNATIONAL, priority 2016, dated 2019).
# Tests used:
# [1] = Solubilization of the benzotriazole UV absorber in the ISO monomer; assay type: physicochemical; settings: in isocyanate monomer, compared with comparative benzotriazole VII
# Method: For polythiourethane matrix, solubility during processing and compatibility of inventive and comparative benzotriazoles were assessed in two stages. First, initial solubilization of the benzotriazole UV absorber in the isocyanate monomer was assessed.
# [2] = Transmission spectra: transmittance and light cut-off wavelength; assay type: physicochemical
# Source text: The light cut-off wavelength of the optical material is preferably higher than or equal to 400 nm, more preferably higher than or equal to 405 nm, and even more preferably higher than or equal to 410 nm. It is preferably lower than 465 nm, more preferably lower than 450 nm. In the present disclosure, the light cut-off wavelength is defined as the wavelength below which light transmission becomes lower than 1%. In other words, it is the highest wavelength for which the transmittance is lower than 1%. The higher the light cut-off wavelength, the better the blue light cutting properties.
# In the present description, unless otherwise specified, optical transmittances/transmissions are measured at the center of the optical article for a thickness ranging from 0.7 to 2 mm, preferably 2 mm, at normal incidence. As used herein, optical transmittance within a wavelength range is an average of light transmitted within this range and is not weighted according to the sensitivity of the eye at each wavelength of the range, unless otherwise specified. Last, optical transmittance is measured for optical articles having no coatings, in particular no antireflective coatings.
# The light cut-off wavelength was determined from the transmission spectra, which are shown on FIGS. 1 and 2. […]
compound,measurement,setting,value
"CCCCCCCCOC(=O)CCc1cc(-n2nc3ccc(Cl)cc3n2)c(O)c(C(C)(C)C)c1 [Benzotriazole IV, n-octyl-3-[3-tert-butyl-4-hydroxy-5-(5-chloro-2H-benzotriazol-2-yl)phenyl] propionate]",Dissolution properties,[1],improved dissolution properties
octyl-3-[3-tert-butyl-4-hydroxy-5-(2H-benzotriazol-2-yl)-phenyl] propionate branched and linear alkyl esters [Eversorb® 82],optical transmittance for each light wavelength ranging from 280 to 400 nm,[2]; 2-mm thick layer of material,lower than 1%
same,T (%) at 430 nm,"[2]; 2 mm thick material, 430 nm",higher than 65%
